# PubChem BioAssay AID2740 (NMMLSC, 2010)
# The source made the active and inactive calls.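 Rule for the calls: active = compounds whose fitted half-maximal concentration for changing the GFP signal is at or below a set limit; inactive = the rest.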
# Test: TOR pathway RPL19A-GFP modulators, concentration series – cell-based, S. cerevisiae, flow cytometry, MLPCN hits, dose response (AID 2740);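 note: background is signal of the same compound in parental non-GFP s288c yeast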
# Details: S. cerevisiae RPL19A-GFP strain, flow cytometry fluorescence, 3 h; at 33 µM (top of the series)
row,SMILES,"GFP fluorescence, lower = active (kMESF (background-subtracted))"
1,COc1ccccc1[C@]1(C)ON(c2ccccc2C(F)(F)F)C1=O,30.8 (inactive)
2,Nc1ccccc1SC(C[N+](=O)[O-])c1ccccc1 (configuration not stated),38.1 (inactive)
3,O=C1C=CC(=O)N1N(c1ccccc1)c1ccccc1,23.9 (inactive)
4,COc1ccc(N2C(=O)C(Cl)=C(Nc3c(C)n(C)n(-c4ccccc4)c3=O)C2=O)cc1,39.8 (inactive)
5,Cc1ccc(C2=NOC(=O)/C2=C\c2ccc(C)o2)cc1,22 (inactive)
6,O=C(Nc1nnc(-c2ccc(F)cc2)o1)c1cc(Cl)sc1Cl,51.4 (inactive)
7,CC(Oc1ccc2ccccc2c1)C(=O)NNC(=S)NC(=O)c1ccco1 (configuration not stated),34.3 (inactive)
8,COc1ccc(N2C(=O)C(Cl)=C(Oc3cccc(OC)c3)C2=O)cc1,45.6 (inactive)
9,CCCCC(=O)NNC(=S)NC(=O)c1ccc(C)cc1,42.3 (inactive)
10,N/C(=N\OC(=O)c1ccccc1Cl)c1ccc(Cl)cc1,38.2 (inactive)
11,Cc1cccc(N2C(=O)C(Cl)=C(Nc3c(C)n(C)n(-c4ccccc4)c3=O)C2=O)c1C,41.7 (inactive)
12,Oc1ccc2ccccc2c1N=Nc1nccs1,51 (inactive)
13,CC(C)Cn1c(=O)c(C(=O)Nc2ccncc2)c(O)c2ccccc21,5.71 (inactive)
14,O=C1ON=C(c2ccccc2)/C1=C\c1ccco1,28.9 (inactive)
15,CC1=C/C(=N\OS(=O)(=O)c2ccccc2)C(C)=CC1=O,17.1 (inactive)
16,O=C(CCS(=O)(=O)c1ccccc1)Nc1nc(-c2ccccn2)cs1,37.8 (inactive)
17,Cc1cc(C)c(S(=O)(=O)ON2C(=O)c3ccccc3C2=O)cc1C,25.8 (inactive)
18,COc1ccc(C(=O)/C=C2/C(=O)Nc3ccccc32)c(OC)c1,37.3 (inactive)
19,Cc1cc(C(=O)COC(=O)c2ccc[nH]c2=O)c(C)n1-c1ccccc1F,28.1 (inactive)
20,COc1ccc(C(=O)NC(=S)NNC(=O)c2cnccn2)cc1,35.4 (inactive)
21,CCOC(=O)C1=C(O)c2ccccc2C(=O)/C1=C\c1ccc(C)cc1,-7.18 (inactive)

row,SMILES,"GFP fluorescence, lower = active (kMESF (background-subtracted))"
1,CCCc1cc(NCc2ccccn2)n2nc(C)c(-c3ccccc3)c2n1,39.1 (inactive)
2,Cc1ccc(/C=N/Nc2ncc(Cl)cc2Cl)s1,43.1 (inactive)
3,CC(=O)Oc1oc(-c2ccccc2)nc1C=Nc1ccc(N(C)C)cc1,41.6 (inactive)
4,COc1ccc(C(=O)NNC(=S)NC(=O)/C=C/c2cccs2)cc1,47.4 (inactive)
5,O=C(Sc1cccc2cccnc12)c1ccccc1Br,34.8 (inactive)
6,C[C@@]12C(=O)OC(=O)[C@]1(C)C1CCC2O1,25.9 (inactive)
7,CCc1nc2ccccc2c(=O)n1NC(=O)c1c(O)c2cccc3c2n(c1=O)CCC3,25.5 (inactive)
8,Cc1cc(C(=O)Nc2nc(-c3ccccn3)cs2)ccc1[N+](=O)[O-],48.9 (inactive)
9,COc1cc(NC(=O)c2ccccc2[N+](=O)[O-])ccc1NC(=O)c1cc2ccccc2o1,39.2 (inactive)
10,Cc1cc(C2CCCCC2)n(O)c(=O)c1,42.8 (inactive)
11,O=C(/C=C/c1cc(Br)ccc1O)c1ccco1,33.5 (inactive)
12,On1ccccc1=S,38 (inactive)
13,CCOC(=O)CCS(=O)(=O)c1nc(-c2ccccc2)cc(C(F)(F)F)n1,33.2 (inactive)
14,O=C(COc1ccc(F)cc1Cl)Nc1nc(-c2ccccn2)cs1,35.8 (inactive)
15,O=C(COc1ccccc1)N1CCN(c2ncnc3c2cnn3-c2ccccc2)CC1,37.1 (inactive)
16,C/C(=N\NC(=O)c1cc2ccccc2cc1O)c1ccccn1,45.5 (inactive)
17,CCn1c(=O)c(C(C)=O)c(O)c2ccccc21,47 (inactive)
18,COc1cccc2c(=O)c(C(=O)NCc3cccs3)c[nH]c12,40.5 (inactive)
19,Cc1cccnc1Nc1nc(-c2ccccn2)cs1,33.3 (inactive)
20,O=C(Oc1c(Cl)cc(Cl)c2cccnc12)c1cccc([N+](=O)[O-])c1,24.8 (inactive)
21,Cc1ccc(C(=O)Oc2oc(-c3ccccc3)nc2C=Nc2ccc(N(C)C)cc2)cc1,38.8 (inactive)
